For 32 compounds, IC50 results are on record in patent US10828301B2, “2,4-pyrimidinediamine compounds and their uses” (Rigel Pharmaceuticals, Inc, priority 2002, dated 2020).

The structures appear in SMILES notation. A value given as a limit tells only on which side of the number the result lay.

Assay [1] deals with cultured human mast cells (CHMC). The assay can be described thus: CHMC low cell density IgE activation: tryptase and LTC4 assays. As to conditions: Low Density CHMC, anti-IgE activation. Type of assay: cell-based. The gist of the method: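 Degranulation measured after 30 min anti-IgE challenge at 37° C of CHMC plated at 1000-1500 cells/well following 1 h preincubation. Readouts: LTC4 by ELISA on donor-specific diluted supernatants, and tryptase activity from a 30 min room-temperature substrate reaction.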

Assay [2] shares this test system. The assay is described as follows: CHMC low cell density ionomycin activation: tryptase assay. It counts as cell-based. As to conditions: Low Density CHMC, ionomycin activation, tryptase readout, read-out: CHMC Ionomycin Tryptase.
Where [3] appears, read: Homo sapiens, Mast cell, tryptase readout, read-out: CHMC anti-IgE Tryptase.
Where [4] appears, read: tryptase readout, read-out: CHMC anti-IgE Tryptase.

Consider `CCOC(=O)C=Nc1cccc(Nc2nc(N(CC(=O)OCC)c3cccc(N=CC(=O)OCC)c3)ncc2F)c1` [Compound R950183, N2,N4-Bis(3-ethoxycarbonylmethyleneaminophenyl)-N2-(ethoxycarbonylmethyl)-5-fluoro-2,4-pyrimidinediamine], for which the IC50 in assay [1] (setting [3]) was 4.8 µM; in assay [2] (Homo sapiens, Mast cell), over 10 µM.
The like results for `COc1ccc(OCCNNc2ncc(F)c(Nc3cccc(O)c3)n2)cc1` [Compound R950211, 5-Fluoro-N4-(3-hydroxyphenyl)-N2-(4-methoxyphenyloxyethyleneamino)-2,4-pyrimidinediamine] were, in that order, 10 µM and over 10 µM.
Turning to `CC(C)(C)c1cccc(Nc2ncc(F)c(Nc3ccc4c(c3)N=CCO4)n2)c1` [Compound R909246, N4-(1,4-Benzoxazin-6-yl)-N2-(3-tert-butylphenyl)-5-fluoro-2,4-pyrimidinediamine], the IC50 in assay [1] (setting [3]) is 0.169 µM; in assay [2] (Homo sapiens, Mast cell), over 10 µM.
With `Fc1cnc(Nc2ccc3c(c2)OCCO3)nc1Nn1cccc1` [Compound R935277, N2-(3,4-Ethylenedioxyphenyl)-5-Fluoro-N4-(1H-pyrrol-1-yl)-2,4-pyrimidinediamine], the IC50 in assay [1] (setting [3]) is 22.9 µM; in assay [2] (Homo sapiens, Mast cell) it was 8.9 µM.
As to `c1ccc(-c2cc(Nc3ccc4c(c3)OCCO4)nc(Nc3ccc4c(c3)OCCO4)n2)cc1` [Compound R925811, N2,N4-Bis(3,4-ethylenedioxyphenyl)-6-phenyl-2,4-pyrimidinediamine], the IC50 in assay [1] (setting [3]) is 3.3 µM; in assay [2] (Homo sapiens, Mast cell) it was over 10 µM.
The like results for `Fc1cnc(Nc2ccc3cc[nH]c3c2)nc1Nc1ccc2cc[nH]c2c1` [Compound R926594, N2,N4-Bis(indol-6-yl)-5-fluoro-2,4-pyrimidinediamine] were, in that order, over 10 µM and over 10 µM.
`COC(=O)c1cc2cc(Nc3ncc(F)c(Nc4cccc(OC(C)C)c4)n3)ccc2o1` [Compound R926487, 5-Fluoro-N4-(3-isopropoxyphenyl)-N2-(2-methoxycarbonylbenzofuran-5-yl)-2,4-pyrimidinediamine]: the IC50 in assay [1] (Homo sapiens, Mast cell, LTC4 readout, read-out: CHMC anti-IgE LTC4) was determined as 1.25 µM; in assay [1] (setting [3]), 0.554 µM; in assay [2] (Homo sapiens, Mast cell), 8.87 µM.
With `O=C(O)c1ccc(Nc2ncc(F)c(Nc3ccc(C(=O)O)c(O)c3)n2)cc1O` [Compound R945061, N2,N4-Bis(3-hydroxy-4-carboxyphenyl)-5-fluoro-2,4-pyrimidinediamine], the IC50 was 10 µM in assay [1] (setting [3]) and over 10 µM in assay [2] (Homo sapiens, Mast cell).
For `COc1ccc(-c2ccccc2)cc1Nc1ncc(Br)c(Nc2cc(-c3ccccc3)ccc2OC)n1` [Compound R925799, N2,N4-Bis(2-methoxy-5-phenylphenyl)-5-bromo-2,4-pyrimidinediamine], in that order: over 10 µM and over 10 µM.
As for `CCCCOc1ccc(Nc2cc(Nc3ccc4c(c3)OCCO4)c(F)cn2)cc1` [Compound R920666, N2-(4-n-Butyloxyphenyl)-N4-(3,4-ethylenedioxyphenyl)-5-fluoro-2,4-pyridinediamine], the IC50 in assay [1] (setting [3]) was 2.53 µM; in assay [2] (Homo sapiens, Mast cell), over 10 µM.
For `CCOC(=O)c1nc(Nc2ccc3c(c2)OCCO3)nc(Nc2ccc3c(c2)OCCO3)c1[N+](=O)[O-]` [Compound R925852, N2,N4-Bis(3,4-ethylendioxyphenyl)-6-ethoxycarbonyl-5-nitro-2,4-pyrimidinediamine], in that order: 3 µM and over 10 µM.
Consider `COC(=O)c1ccc(Nc2ncc(F)c(Nc3ccc(C(=O)OC)c(O)c3)n2)cc1O` [Compound R945056, N2,N4-Bis[3-hydroxy-4-(methoxycarbonyl)phenyl]-5-fluoro-2,4-pyrimidinediamine], for which the IC50 in assay [1] (setting [3]) is 10 µM; in assay [2] (Homo sapiens, Mast cell) it was over 10 µM.
The like results for `CCOC(=O)Cc1ccc(Nc2ncc(C(F)(F)F)c(Nc3ccc(CC(=O)OCC)cc3)n2)cc1` [Compound R926663, N2,N4-Bis[4-(ethoxycarbonylmethyl)phenyl]-5-trifluoromethyl-2,4-pyrimidinediamine] were, in that order, over 10 µM and over 10 µM.
For `Fc1cnc(NCc2csc3ccccc23)nc1NCc1csc2ccccc12` [Compound R945145, N2,N4-Bis(benzothiophen-3-ylmethyl)-5-fluoro-2,4-pyrimidinediamine], in that order: over 10 µM and over 10 µM.
Turning to `Fc1cnc(Nc2cccc(OCc3ccccc3)c2)nc1Nc1cccc(OCc2ccccc2)c1` [Compound R926394, N2,N4-Bis(3-benzyloxyphenyl)-5-fluoro-2,4-pyrimidinediamine], the IC50 in assay [1] (setting [3]) is over 10 µM; in assay [2] (Homo sapiens, Mast cell) it was over 10 µM.
On to `CCOC(=O)c1cccc(Nc2ncc(F)c(Nc3ccc4c(c3)OCCO4)n2)c1` [Compound R925745, N2-(3-Ethoxycarbonylphenyl)-N4-(3,4-ethylenedioxyphenyl)-5-fluoro-2,4-pyrimidinediamine], for which the IC50 in assay [1] (setting [3]) was 1.77 µM; in assay [2] (Homo sapiens, Mast cell), over 10 µM.
Turning to `Fc1cnc(Nc2cccnc2)nc1Nc1ccc2c(c1)OCCO2` [Compound R920668, N4-(3,4-Ethylenedioxyphenyl)-5-fluoro-N2-(3-pyridyl)-2,4-pyrimidinediamine], the IC50 in assay [1] (setting [3]) is 3.2 µM; in assay [2] (Homo sapiens, Mast cell), over 10 µM.
Take `Fc1cc(F)cc(Nc2ncc(F)c(Nc3ccc4c(c3)OCCO4)n2)c1` [Compound R926898, N4-(3,4-Ethylenedioxyphenyl)-5-fluoro-N2-(3,5-difluorophenyl)-2,4-pyrimidinediamine]: the IC50 was 1.1 µM in assay [1] (setting [3]) and over 10 µM in assay [2] (Homo sapiens, Mast cell).
With `Nc1cc(Nc2ncc(F)c(Nc3cc(N)cc(C(F)(F)F)c3)n2)cc(C(F)(F)F)c1` [Compound R950140, N2,N4-Bis(3-amino-5-trifluoromethylphenyl)-5-fluoro-2,4-pyrimidinediamine], the IC50 in assay [1] (setting [3]) is 2.83 µM; in assay [2] (Homo sapiens, Mast cell) it was over 10 µM.
The like results for `Fc1cnc(Nc2ccccc2-c2ccccc2)nc1Nc1ccccc1-c1ccccc1` [Compound R926398, N2,N4-Bis(2-phenylphenyl)-5-fluoro-2,4-pyrimidinediamine] were, in that order, over 10 µM and over 10 µM.
For `N#Cc1cccc(Nc2ncc(F)c(Nc3cccc(C#N)c3)n2)c1` [Compound R945051, N2,N4-Bis(3-cyanophenyl)-5-fluoro-2,4-pyrimidinediamine], in that order: 0.95 µM and over 10 µM.
For `O=[N+]([O-])c1cnc(Nc2ccc3c(c2)OCCO3)nc1Nc1ccc2c(c1)OCCO2` [Compound R940095, N2,N4-Bis-(3,4-ethylenedioxyphenyl)-5-nitro-2,4-pyrimidinediamine], in that order: over 10 µM and over 10 µM.
As for `CNC(=O)c1cc2cc(Nc3ncc(F)c(Nc4cccc(C(C)(C)C)c4)n3)ccc2o1` [Compound R940291, N4-(3-tert-Butylphenyl)-5-fluoro-N2-[2-(N-methylamino)carbonylbenzofur-5-yl]-2,4-pyrimidinediamine], the IC50 is 0.396 µM in assay [1] (setting [3]) and over 10 µM in assay [2] (Homo sapiens, Mast cell).
With `O=c1ccc2cc(Nc3ncc(F)c(Nc4ccc5oc(=O)ccc5c4)n3)ccc2o1` [Compound R926617, N2,N4-Bis(coumarin-6-yl)-5-fluoro-2,4-pyrimidinediamine], the IC50 is 9.45 µM in assay [1] (setting [3]) and over 10 µM in assay [2] (Homo sapiens, Mast cell).
For `Oc1cccc(Nc2nc(Nc3ccc(-n4cnc(Cl)c4Cl)cc3)ncc2F)c1` [Compound R926777, N2-[4-(4,5-Dichloro-1H-imidazol-1-yl)phenyl]-5-fluoro-N4-(3-hydroxyphenyl)-2,4-pyrimidinediamine], in that order: 0.378 µM and over 10 µM.
The like results for `CC(C)Oc1ccc(Nc2ncc(F)c(Nc3ccc(C(C)(C)CO)cc3)n2)cc1` [Compound R935168, 5-Fluoro-N4-[4-(2-hydroxy-1,1-dimethylethyl)phenyl]-N2-(4-isopropoxyphenyl)-2,4-pyrimidinediamine] were, in that order, 0.488 µM and 9.48 µM.
For `Oc1cccc(Nc2nc(Nc3cccc(-c4cc[nH]n4)c3)ncc2F)c1` [Compound R926841, 5-Fluoro-N4-(3-hydroxyphenyl)-N2-[3-(1H-pyrazol-3-yl)phenyl]-2,4-pyrimidinediamine], in that order: 0.551 µM and over 10 µM.
As to `Nc1nc(N(c2ccc(CO)cc2)c2ccc3c(c2)OCCO3)ncc1F` [Compound R925760, N2-(3,4-Ethylenedioxyphenyl)-5-fluoro-N2-[4-(hydroxymethyl)phenyl]-2,4-pyrimidinediamine], the IC50 in assay [1] (setting [3]) was 4.85 µM; in assay [2] (Homo sapiens, Mast cell), over 10 µM.
As to `COC(=O)Cn1ncc2cc(Nc3ncc(F)c(Nc4ccc5c(c4)OCCO5)n3)ccc21` [Compound R935223, N4-(3,4-Ethylenedioxyphenyl)-5-fluoro-N2-[1-(methoxycarbonyl)methyl-indazoline-5-yl]-2,4-pyrimidinediamine], the IC50 in assay [1] (setting [4]) is 0.469 µM; in assay [2], over 10 µM.
With `Oc1cccc(Nc2ncc(F)c(NC3c4ccccc4-c4ccccc43)n2)c1` [Compound R935020, N4-(Fluoren-9-yl)-5-fluoro-N2-(3-hydroxyphenyl)-2,4-pyrimidinediamine], the IC50 was over 10 µM in assay [1] (setting [3]) and over 10 µM in assay [2] (Homo sapiens, Mast cell).
On to `Cn1nc(I)c2cc(Nc3ncc(F)c(Nc4ccc(I)c(O)c4I)n3)ccc21` [Compound R935221, N4-(2,4-Diiodo-3-hydroxypheny)-5-fluoro-N2-(3-iodo-1-methyl-indazoline-5-yl)-2,4-pyrimidinediamine], for which the IC50 in assay [1] (setting [4]) and in assay [2] was over 10 µM each time.
In the case of `OCCOc1cccc(Nc2ncc(F)c(Nc3ccc4oc(CO)cc4c3)n2)c1` [Compound R935178, 5-Fluoro-N2-[3-(2-hydroxyethyloxy)phenyl]-N4-(2-hydroxymethylbenzofur-5-yl)-2,4-pyrimidinediamine], the IC50 in assay [1] (setting [3]) is 0.515 µM; in assay [2] (Homo sapiens, Mast cell), over 10 µM.
